According to patent US20200360311A1, “USE OF 3-METHYLMETHCATHINONE” (MIND MEDICINE, NC., priority 2017, published 2020):

Legend:
[1] = Case Study II: 3-MMC couple's therapy; format: in vivo, human; details: heterosexual couple, 6 sessions over 6 months, 150 milligrams each orally plus booster 100 milligrams 1 hour later
Source text: Heterosexual couple married for 17 years were caught in a cycle of repetitive conflict over what they both agreed were trivial issues. They described intense, mutual emotional reactivity and angry outbursts which was problematic enough to begin to discuss divorcing. As a last attempt to resolve their conflicts they agreed to participate in once a month 3-MMC couple's therapy. […] In this case the therapy consisted of one therapist who assessed the couple and prepared for the 3-MMC sessions with 2 non-3MMC sessions where the couple was taught a specific communication technique (Non Violent Communication). The space was a normal therapist's office with comfortable furnishings, 3 chairs and an adjoining kitchen. The 3-MMC was given orally which a dosage of 150 milligrams each followed by a booster dosage of 100 milligrams given 1 hour after the first dosage. The couple alternated between periods of listening to relaxing music and conversation, where they explored their own perspectives on how to communicate in relationship both currently and historically. The counsellor would translate some of the couple's statements in the language of non-violent communication and encourage self responsibility. The end of the session occurred 5 hours after the booster dose and a light meal was prepared and served and the couple and therapist ate and debriefed the session. […]

[2] = animal models, cited from earlier work
[3] = Case Study IV: 3-MMC-assisted psychotherapy for PTSD and Generalized Anxiety Disorder (GAD); format: in vivo, human; details: person, 200-400 mg twice weekly on two consecutive days for 8 weeks; from week 5 also EMDR with propanolol
Source text: A person had been suffering from Post traumatic Stress Disorder (PTSD), depression, and General Anxiety Disorder (GAD).
The symptoms they experienced were panic attacks, hyperventilation, pain in the chest, numbness, and tingling in the extremities, Irritable-Bowel Syndrome (IBS), nightmares, and insomnia.
The PTSD had been caused by a particular life-threatening event, as well as other related incidences that had unfolded in their youth. The psychological ramifications of these events went undiagnosed for many years, although they were eventually treated for anxiety and depression. They refused however, to take the anti-depressants that their physician was willing to prescribe them, and only occasionally would take 5-10 mg Oxazepam for acute panic attacks.
At the time that they started with the 3-MMC-assisted psychotherapy, they had been suffering from an occupational burnout for 4 months already cf. DC-10 Z-73.0.
3-MMC was administered twice weekly on two consecutive days at a dosage of 200-400 mg each time for a period of 8 weeks. Starting at week 5; 3-MMC-assisted psychotherapy took place once a week. Each session lasted 6.5-10 h with an average of 8.5 h per session. […]

[4] = Case Study I: 3-MMC-assisted psychotherapy for post-traumatic stress disorder (PTSD); format: in vivo, human; details: person, three 3-MMC-assisted psychotherapy sessions, 200 milligrams orally
Source text: Person suffering from PTSD who was previously incorrectly diagnosed with bipolar disorder, unable to work was under the care of a psychiatrist with no improvement in 4 years. […] In this case, the therapy consisted of both a male and female therapist in a room designed for this therapy (soft lighting, bed, attractive pillows, carefully chosen music, inspirational art—spiritual and nature). The patient was taught relaxation and breathing techniques and briefed in what to expect from the experience. In this case 200 milligrams of 3-MMC was given orally and the patient then lay down on the bed and listened to soothing music for 1.5 hours with eye shades on (internal experience). […] The therapists engaged in psychotherapy for 2 hours after which the patient once again lay down and put on the eyeshades for another 2 hours. Subsequently, the patient re-engaged with the therapists and explored their insights about how they could reframe the traumatic memory to be a positive learning experience.

[5] = Human subject's perception of 3-MMC's effect after oral administration; format: in vivo; details: human subjects
Description: The present inventors have observed that, in some embodiments the onset of human subject's perception of 3-MMC's effect is approximately 30-90 minutes following oral administration, varying according to whether the 3-MMC was administered to a fasting (more rapid onset), or following a meal (less rapid onset). In some cases, the perception of peak effect of 3-MMC in human subjects occurred between 10 to 30 minutes after the initial perception of onset of 3-MMC's effect. The present inventors further observed that the duration of perception of the effect of 3-MMC in human subjects was, in most cases, for no greater than 4 hours following oral administration.

[6] = Case Study III: 3-MMC assisted therapy for relationship distress; format: in vivo, human; details: person, four 3-MMC assisted psychotherapy sessions, 300 milligrams orally
Description: Single professional entered in to 3-MMC assisted therapy to understand why their relationships with men never lasted more than a few months. […] In this case the patient was assessed and prepared by the female therapist in two preliminary sessions where the patients relationship history was explored. The patient was encouraged to consider the connection between their experience of their parent's relationship when they were a child and their reaction to men they dated which was coloured by their past history. The location of the therapy was the living room of the therapist which had been prepared with inspirational art and wall hangings. The sound system consisted of headphones and an ipod with soothing/spiritual music. On the treatment days the patient was given 300 milligrams of 3-MMC orally. The treatment session started by the therapist guiding a meditation exercise and then the patient was encouraged to reflect internally by lying down with eyeshades and listening to the music. In this case the internal experience was 20 minutes after which the patient removed the eyeshades and turned off the music and proceeded to express intense emotions which related to their past anger at their parent. […]

CNC(C)C(=O)c1cccc(C)c1 (stereo not drawn) [3-MMC, 3-methylmethcathinone]
outcome of couple's therapy [1]: able to take responsibility for their own problematic behaviour and negotiate a more functional relationship
time at which peak serum concentrations are apparent ([2]; after oral administration): 5 to 10 min
apparent plasma half-life ([2]; after oral ingestion): approximately 0.8 hours
level of fear associated with traumatic memories [3]: led the level of associated fear to decrease with each subsequent session
clinical outcome of PTSD patient [4]: no longer diagnosable with either PTSD or bipolar and was able to return to gainful employment
onset of subject's perception of effect ([5]; following oral administration, fasting more rapid, following a meal less rapid): 30 to 90 min
duration of perception of the effect ([5]; following oral administration, in most cases): ≤ 4 h
perception of peak effect ([5]; time after the initial perception of onset of effect, in some cases): 10 to 30 min
outcome of therapy for relationship distress [6]: understood their previously unconscious behaviour pattern
